The results in this text go back to article PMC9068901, “Novel Inhibitors and Activity-Based Probes Targeting Trypsin-Like Serine Proteases” (Frontiers in Chemistry, 2022).

In assay [1] the test system is trypsin-like proteases in American cockroach extract. Briefly: ABP of American cockroach extract. The format is binding, Periplaneta americana. The settings on record: probe 50 μM, 30 min, 37°C. As for the experimental part:
(§1) Cockroach extract was probed with NAP858 (50 μM) (± heat inactivation at 95°C, for 10 min), for 30 min, at 37°C. Samples were then denatured with SDS-containing reducing treatment buffer (10 min/95°C), followed by resolution by SDS-PAGE and protein transfer unto nitrocellulose membrane which was incubated with streptavidin-HRP (1 in 20,000). The membrane was visualised following treatment with Luminata Forte HRP substrate.
(§2) Removal of endogenous biotinylated proteins present in the cockroach extract was performed in some experiments to improve clarity of the Western blots obtained. Neutravidin agarose beads were washed three times with 1 ml wash buffer (150 mM NaCl, 50 mM Tris, 1 mM EGTA, 1% (v/v) NP-40, pH 7.4) then resuspended in PBS (pH 7.4). These neutravidin beads were then used to bind and remove (pre-clear) endogenous biotinylated proteins present in the cockroach extract. This involved rotation of the bead-cockroach extract mix at 4°C for 30 min followed by centrifugation to enable collection of the pre-cleared supernatant fraction. The bead fraction containing bound endogenous biotinylated proteins from cockroach extract was discarded. The supernatant was then probed with NAP858 (50 μM) (±Cbz-Arg^P(OPh)2), for 30 min, at 37°C, followed by addition of freshly washed neutravidin agarose beads. […]

For assay [2], the target named is T1, neutrophil elastase (Homo sapiens, UniProt P08246).
T1 construct: purchased Calbiochem
T1 sequence (P08246 30-267): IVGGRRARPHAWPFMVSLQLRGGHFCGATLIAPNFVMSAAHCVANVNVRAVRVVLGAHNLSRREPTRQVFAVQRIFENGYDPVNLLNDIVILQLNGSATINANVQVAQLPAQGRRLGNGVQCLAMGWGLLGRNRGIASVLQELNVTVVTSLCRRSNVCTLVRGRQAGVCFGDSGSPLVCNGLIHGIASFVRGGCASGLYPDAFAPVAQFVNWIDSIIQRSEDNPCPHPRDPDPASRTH
Briefly: Off-target fluorogenic substrate assay, neutrophil elastase. Type of assay: biochemical. The settings on record: 50 μM (highest concentration tested); read-out: inhibition of NE (decrease in activity) relative to controls. The procedure: (§3) Recombinant protease activities were assessed using the cognate fluorogenic substrates (final concentration 50 μM) as follows: trypsin (Cbz-Gly-Gly-Arg-AMC), neutrophil elastase (MeO-Suc-Ala-Ala-Pro-Val-AMC) and chymotrypsin (Suc-Ala-Ala-Pro-Phe-AMC). The assay in the presence or absence of protease inhibitors at a range of final concentrations was performed using a standard microtitre plate format. Substrate hydrolysis, at 37°C, was monitored over a 60 min period by measuring the rate of increase in fluorescence (at λex 360 nm, λem 480 nm) using a FLUOstar Optima microplate reader (BMG Labtech).

The target of assay [3] is T2, human airway trypsin-like protease (HAT) (Homo sapiens, UniProt O60235).
T2 construct: purchased R and D Systems
Briefly: Activity-based probe labelling of HAT. The format is binding. The settings on record: 30 min, 37°C; band at 25 kDa. As for the experimental part: (§4) Samples of recombinant protease (trypsin, human airway trypsin-like protease (HAT), matriptase, thrombin or neutrophil elastase, as indicated in the relevant figure legends) were treated with putative ABPs at a concentration of 50 μM, for 30 min, at 37°C. A control sample was prepared by treating recombinant protease with solvent control only. A further sample was prepared where Cbz-Arg^P(OPh)2 was added 30 min prior to the addition of the ABP under examination. […] All treated samples were then denatured with SDS-containing reducing treatment buffer (10 min at 95°C), followed by resolution by SDS-PAGE and subjected to Western blotting. Note, only stable covalent bonds between the ABP and protease active site would survive the harsh denaturing conditions involved in the resolution process. Resolved proteins were then transferred on to nitrocellulose membrane and labelled with streptavidin-HRP. The ABP-protease complex was then visualised following treatment with Luminata Forte HRP substrate.

Assay [4] addresses T3, thrombin (Homo sapiens, UniProt P00734).
T3 construct: purchased R and D Systems
As to the kind of experiment: Activity-based probe labelling of thrombin. The conditions noted are these: 30 min, 37°C; heavy chain 31 kDa. Type of assay: binding. The procedure:
as §4

In assay [5] the target is T4, matriptase (Homo sapiens, UniProt Q9Y5Y6).
T4 construct: purchased R and D Systems
T4 sequence (Q9Y5Y6 615-855 limits assumed): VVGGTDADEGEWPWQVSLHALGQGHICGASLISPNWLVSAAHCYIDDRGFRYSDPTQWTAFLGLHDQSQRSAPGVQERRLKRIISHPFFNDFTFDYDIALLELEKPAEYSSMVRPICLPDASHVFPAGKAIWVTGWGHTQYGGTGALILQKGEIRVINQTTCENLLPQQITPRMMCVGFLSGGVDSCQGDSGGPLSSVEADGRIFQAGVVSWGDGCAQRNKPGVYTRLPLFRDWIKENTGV
Briefly: Activity-based probe labelling of matriptase. The format is binding. The settings on record: 30 min, 37°C; band at 26 kDa. The procedure:
as §4

Assay [6] has as its system trypsin. Briefly: Activity-based probe labelling of trypsin (SDS-PAGE, Western blot, streptavidin-HRP). Type of assay: binding. The settings on record: probe 50 μM, 30 min, 37°C. The procedure: as §4
Background: A western blot detects proteins with antibodies after separation by electrophoresis.

Assay [7] deals with trypsin-like proteases in German cockroach extract. Briefly: ABP of German cockroach extract. Type of assay: binding, Blattella germanica. The settings on record: probe 50 μM, 30 min, 37°C. The procedure:
as §1, §2

Assay [8] has as its system trypsin. Briefly: Off-target fluorogenic substrate assay, trypsin. Type of assay: biochemical. The conditions noted are these: across the range of concentrations studied, vs chymotrypsin and NE. As for the experimental part:
as §3

The subject of assay [9] is chymotrypsin. As to the kind of experiment: Off-target fluorogenic substrate assay, chymotrypsin. Type of assay: biochemical. The conditions noted are these: 50 μM (highest concentration tested). The procedure:
as §3

For assay [10], the target named is human trypsin (Homo sapiens, UniProt P07477). As to the kind of experiment: Determination of inhibitor constants against trypsin (progress curves, Cbz-Gly-Gly-Arg-AMC). Type of assay: biochemical. The settings on record: PBS pH 7.4, 37°C, ±S.E.M., three determinations. The procedure:
as §3
A broad range of inhibitor concentrations were prepared from a 10 mM stock solution of the five test compounds (NAP851, NAP966, NAP987, NAP884 and NAP858) in N,N-dimethyformamide (DMF). The fluorogenic substrate, Cbz-Gly-Gly-Arg-AMC, was diluted in assay buffer (PBS, pH 7.4) and used at a fixed concentration of 50 μM. All inhibition assays were performed in microtitre plates maintained at 37°C in a final volume of 100 μL. The reaction was initiated by the addition of human trypsin (0.01 μg/well) and the rate of substrate hydrolysis continuously recorded at λex 360 nm, λem 480 nm using a FLUOstar Optima microplate reader (BMG Labtech). The resultant inhibition progress curve for the putative protease inhibitors were analysed according to the kinetic models developed by Tian and Tsou ([Tian and Tsou, 1982]) and Walker and Elmore ([Walker and Elmore, 1984]), for irreversible inhibitors, using GRAFIT (Erithacus Software) as described previously ([Ferguson et al., 2016]).

Structures are written as SMILES. Where only a bound is given, the exact number is not on record here.

T2 sequence (O60235 187-418 limits assumed): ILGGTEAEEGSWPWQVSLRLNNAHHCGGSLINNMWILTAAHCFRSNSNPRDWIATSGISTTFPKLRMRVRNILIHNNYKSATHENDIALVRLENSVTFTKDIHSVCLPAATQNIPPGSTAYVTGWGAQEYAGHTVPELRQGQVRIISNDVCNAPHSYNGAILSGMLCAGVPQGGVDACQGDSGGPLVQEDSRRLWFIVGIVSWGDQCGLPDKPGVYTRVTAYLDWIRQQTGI
T2 sequence (O60235 44-186 partner limits assumed): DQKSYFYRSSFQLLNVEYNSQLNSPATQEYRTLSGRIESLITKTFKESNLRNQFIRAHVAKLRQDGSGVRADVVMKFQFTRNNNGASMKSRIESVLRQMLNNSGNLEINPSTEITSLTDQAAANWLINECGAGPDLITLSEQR

As usually defined, the inhibition is how much of the control response was suppressed. Usually Ki stands for the dissociation constant of the complex between target and ligand, obtained from inhibition or displacement. Consider `N=C(N)NCCCN(CC(=O)NCC(=O)NCC(=O)NCCCOCCOCCOCCCNC(=O)CCCC[C@@H]1SC[C@@H]2NC(=O)N[C@@H]21)C(=O)ON1C(=O)CCC1=O` [NAP858], for which the “bands detected in American cockroach extract” value in [1] was “single, intense band with an apparent molecular mass of 25 kDa”. The inhibition at 50 µM in [2] is below 10%. The “labelling of HAT” value in assay [3] was “does indeed function as an AP for both proteases”. For the same compound, the labelling of thrombin entry in assay [4] was “can act as an AP for thrombin”. For the same compound, in assay [5], the labelling of matriptase entry is “does indeed function as an AP for both proteases”. Also, the labelling of trypsin entry in assay [6] is “labelling of a single protein band corresponding to the correct molecular mass of trypsin”. The “bands detected in B. germanica extract” value in assay [7] was “close doublet of protein bands of similar molecular mass (≈25 kDa)”. Besides, in assay [8], the “selectivity of action for trypsin” value is reported as “pronounced selectivity of action in inhibiting trypsin”. In addition, the “inhibition of chymotrypsin relative to controls” value in assay [9] is below 10%. In addition, in assay [10] (50 μM Cbz-Gly-Gly-Arg-AMC, read-out: Ki), the Ki turned out to be 226 nM. The k3 in assay [10] (first-order rate constant) is 0.473 (±0.101) min^−1. In assay [10] (second-order rate constant), the k3/Ki is recorded as 2.06 (±0.884) x 10^6 M^−1 min^−1.
